Source: the supplement of paper PMC10307832

Columns and labels:
Experiment in all cases: relative viability (nuclei count vs DMSO), 5 days (fraction); higher = more cells survive
[1] = compound: COc1cc2/c(=N/c3ccc(Br)cc3F)nc[nH]c2cc1OCC1CCN(C)CC1 [Vandetanib] + O=C(CCCCCCC(=O)Nc1ccccc1)NO [Vorinostat] (partner 1 µM)
Method in brief: (§1)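 After 5 days of treatment, lung cancer cells in 1536-well plates were fixed and stained in a single step (final 0.05% Triton X-100, 1% formaldehyde, 1 ug/ml Hoechst) and their nuclei counted on 4× images. Treatment had been applied by pin tool the day after seeding as one drug alone or as a fixed anchor-drug dose with five library-drug doses (not always all listed) in √10 steps. Relative viability is the nuclei count of treated wells divided by that of vehicle wells, and values are medians of duplicate plates.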

[2] = compound: C#Cc1cccc(Nc2ncnc3cc(OC)c(OCCCCCCC(=O)NO)cc23)c1 [CUDC-101] + CC(=O)c1c(C)c2cnc(Nc3ccc(N4CCNCC4)cn3)nc2n(C2CCCC2)c1=O [Palbociclib] (partner 0.5 µM)
Method in brief: as §1

[3] = compound: COc1cc(N2CCC(N3CCN(C)CC3)CC2)ccc1Nc1ncc(Cl)c(Nc2ccccc2S(=O)(=O)C(C)C)n1 [NVP-TAE684] + CS(=O)(=O)CCNCc1ccc(-c2ccc3ncnc(Nc4ccc(OCc5cccc(F)c5)c(Cl)c4)c3c2)o1 [Lapatinib] (partner 2 µM)
Method in brief: as §1

[4] = compound: C#Cc1cccc(Nc2ncnc3cc(OC)c(OCCCCCCC(=O)NO)cc23)c1 [CUDC-101] + Cc1nc(Nc2ncc(C(=O)Nc3c(C)cccc3Cl)s2)cc(N2CCN(CCO)CC2)n1 [Dasatinib] (partner 0.075 µM)
Method in brief: as §1

Cell Line | relative viability ([1]; first compound 0.02 µM) | relative viability ([1]; first compound 0.06325 µM) | relative viability ([1]; first compound 0.2 µM) | relative viability ([1]; first compound 0.6325 µM) | relative viability ([1]; first compound 2 µM) | relative viability ([2]; first compound 0.01 µM) | relative viability ([2]; first compound 0.03162 µM) | relative viability ([2]; first compound 0.1 µM) | relative viability ([2]; first compound 0.3162 µM) | relative viability ([2]; first compound 1 µM) | relative viability ([3]; first compound 0.2 µM) | relative viability ([3]; first compound 0.6325 µM) | relative viability ([3]; first compound 2 µM) | relative viability ([4]; first compound 0.01 µM) | relative viability ([4]; first compound 0.03162 µM) | relative viability ([4]; first compound 0.1 µM) | relative viability ([4]; first compound 0.3162 µM) | relative viability ([4]; first compound 1 µM)
HCC-44 | 1.11 | 1.09 | 1.21 | 1.1 | 1.15 | 1.02 | 0.943 | 0.951 | 0.986 | 1.05 | 1.23 | 1.03 | 0.979 | – | – | – | – | –
HCC-78 | 0.5 | 0.481 | 0.418 | 0.505 | 0.346 | 0.44 | 0.483 | 0.458 | 0.427 | 0.374 | 1.26 | 1.3 | 0.255 | 0.401 | 0.293 | 0.373 | 0.28 | 0.213
HCC-366 | 0.277 | 0.326 | 0.278 | 0.31 | 0.438 | 0.411 | 0.442 | 0.389 | 0.39 | 0.296 | 1.58 | 0.932 | 0.963 | 0.631 | 0.632 | 0.6 | 0.715 | 0.526
HCC-827 | 0.788 | 0.82 | 0.815 | 0.369 | 0.327 | 0.35 | 0.283 | 0.155 | 0.169 | 0.142 | 0.187 | 0.203 | 0.207 | 0.317 | 0.154 | 0.116 | 0.135 | 0.13
HOP-62 | 0.553 | 0.574 | 0.651 | 0.686 | 0.811 | 0.448 | 0.38 | 0.478 | 0.421 | 0.425 | 0.882 | 1 | 1.08 | 0.678 | 0.656 | 0.692 | 0.631 | 0.438
IA-LM | 1.06 | 0.969 | 0.935 | 1.06 | 0.874 | – | – | – | – | – | 0.698 | 0.66 | 0.427 | – | – | – | – | –
LC-2-ad | 0.686 | 0.673 | 0.714 | 0.709 | 0.462 | 0.501 | 0.553 | 0.477 | 0.482 | 0.451 | 0.988 | 0.921 | 0.455 | 0.737 | 0.879 | 0.638 | 0.69 | 0.298
LCLC-97TM1 | 0.711 | 0.755 | 0.719 | 0.559 | 0.755 | 0.203 | 0.228 | 0.252 | 0.173 | 0.164 | 1.51 | 0.547 | 0.287 | 0.821 | 0.804 | 0.864 | 0.855 | 0.596
LCLC-103H | 0.756 | 0.759 | 0.822 | 0.755 | 0.814 | 0.47 | 0.51 | 0.491 | 0.45 | 0.436 | – | – | – | 0.524 | 0.384 | 0.451 | 0.478 | 0.46
NCI-H441 | 0.781 | 0.702 | 0.8 | 0.767 | 0.821 | 0.222 | 0.255 | 0.183 | 0.231 | 0.221 | – | – | – | 0.691 | 0.523 | 0.683 | 0.646 | 0.678
NCI-H522 | 0.947 | 0.962 | 0.85 | 0.874 | 0.936 | 0.96 | 0.795 | 0.876 | 0.985 | 0.741 | – | – | – | 0.931 | 0.758 | 0.928 | 0.842 | 0.596
NCI-H596 | 1.37 | 0.562 | 0.657 | 0.666 | 0.693 | – | – | – | – | – | 0.915 | 0.949 | 0.893 | 0.666 | 0.603 | 0.601 | 0.604 | 0.588
NCI-H1299 | – | – | – | – | – | – | – | – | – | – | 1.03 | 0.964 | 0.836 | – | – | – | – | –
NCI-H1563 | – | – | – | – | – | – | – | – | – | – | 0.95 | 0.858 | 0.655 | 0.439 | 0.465 | 0.448 | 0.488 | 0.429
NCI-H1623 | – | – | – | – | – | – | – | – | – | – | – | – | – | 0.561 | 0.501 | 0.429 | 0.676 | 0.486
NCI-H1648 | 0.473 | 0.506 | 0.596 | 0.375 | 0.627 | 0.243 | 0.273 | 0.256 | 0.27 | 0.211 | – | – | – | – | – | – | – | –
NCI-H1703 | – | – | – | – | – | – | – | – | – | – | 1.41 | 0.994 | 0.392 | – | – | – | – | –
NCI-H1792 | – | – | – | – | – | 0.675 | 0.649 | 0.7 | 0.675 | 0.647 | 0.913 | 0.825 | 0.89 | 0.764 | 0.683 | 0.856 | 0.819 | 0.691
NCI-H2342 | 0.754 | 0.674 | 0.785 | 0.739 | 0.645 | 0.526 | 0.547 | 0.523 | 0.505 | 0.556 | – | – | – | 0.316 | 0.301 | 0.325 | 0.298 | 0.241
SW 900 | 0.692 | 0.528 | – | 0.425 | 0.429 | 0.508 | 0.449 | 0.514 | 0.5 | 0.362 | – | – | – | 0.455 | 0.68 | 0.791 | 0.602 | 0.618
